Data published in ChEMBL document CHEMBL1142185, “Posaconazole enhances the activity of amphotericin B against Aspergillus hyphae in vitro” (2007).
In brackets after ≈: the same amount, converted by molar mass.

Experiments:
Format in all cases: functional
[1] = system: Aspergillus terreus; test: Antifungal activity against Aspergillus terreus conidia
[2] = system: Aspergillus flavus; test: Antifungal activity against Aspergillus flavus hyphae
[3] = system: Aspergillus terreus; test: Antifungal activity against Aspergillus terreus hyphae
[4] = system: Aspergillus fumigatus; test: Antifungal activity against Aspergillus fumigatus hyphae
[5] = system: Aspergillus fumigatus; test: Antifungal activity against Aspergillus fumigatus conidia
[6] = system: Aspergillus niger; test: Antifungal activity against Aspergillus niger hyphae
[7] = system: Aspergillus flavus; test: Antifungal activity against Aspergillus flavus conidia
[8] = system: Aspergillus niger; test: Antifungal activity against Aspergillus niger conidia

| SMILES | MIC90 [1] | MIC90 [2] | MIC90 [3] | MIC90 [4] | MIC90 [5] | MIC90 [6] | MIC90 [7] | MIC90 [8] |
| --- | --- | --- | --- | --- | --- | --- | --- | --- |
| CC[C@@H]([C@H](C)O)n1ncn(-c2ccc(N3CCN(c4ccc(OC[C@@H]5CO[C@@](Cn6cncn6)(c6ccc(F)cc6F)C5)cc4)CC3)cc2)c1=O [POSACONAZOLE] | 0.25 µg/mL (≈ 0.357 µM) | 0.5 µg/mL (≈ 0.713 µM) | 1 µg/mL (≈ 1.43 µM) | 0.5 µg/mL (≈ 0.713 µM) | 0.125 µg/mL (≈ 0.178 µM) | 1 µg/mL (≈ 1.43 µM) | 0.125 µg/mL (≈ 0.178 µM) | 0.25 µg/mL (≈ 0.357 µM) |
| C[C@@H](c1ncncc1F)[C@](O)(Cn1cncn1)c1ccc(F)cc1F [VORICONAZOLE] | 0.5 µg/mL (≈ 1.43 µM) | 2 µg/mL (≈ 5.73 µM) | 1 µg/mL (≈ 2.86 µM) | 1 µg/mL (≈ 2.86 µM) | 0.125 µg/mL (≈ 0.358 µM) | 2 µg/mL (≈ 5.73 µM) | 0.5 µg/mL (≈ 1.43 µM) | 0.5 µg/mL (≈ 1.43 µM) |
| C[C@@H]1[C@H](O)[C@@H](C)/C=C/C=C/C=C/C=C/C=C/C=C/C=C/[C@H](O[C@@H]2O[C@H](C)[C@@H](O)[C@H](N)[C@@H]2O)C[C@@H]2O[C@](O)(C[C@@H](O)C[C@@H](O)[C@H](O)CC[C@@H](O)C[C@@H](O)CC(=O)O[C@H]1C)C[C@H](O)[C@H]2C(=O)O [AMPHOTERICIN B] | 2.5 µg/mL (≈ 2.71 µM) | 2.5 µg/mL (≈ 2.71 µM) | 5 µg/mL (≈ 5.41 µM) | 2.5 µg/mL (≈ 2.71 µM) | 0.625 µg/mL (≈ 0.676 µM) | 5 µg/mL (≈ 5.41 µM) | 1.25 µg/mL (≈ 1.35 µM) | 1.25 µg/mL (≈ 1.35 µM) |
